These are literature values, as cited in US20080038252A1, “Histamine-Containing Composition for the Treatment of Allergic Diseases” (priority 2005, published 2008).

The series deals with allergy animal model. The note with it: same amount as in the complex, administered alone to the allergy animal model (Yoshii).

Consider `NCCc1c[nH]cn1` [histamine], for which the anti-inflammatory effect result was “not produced”.
